In ChEMBL document CHEMBL5465560, “Selectivity Literature for EUbOPEN Chemogenomic Library” (2024):
Blank lines part the entries; values can stand above or below the compound they belong to.

Tests used:
[1] = target: Tyrosine-protein kinase JAK2 (Homo sapiens, UniProt O60674); conditions: at 10 µM
[2] = target: T1, Hormonally up-regulated neu tumor-associated kinase (Homo sapiens) (UniProt P57058); test: Selectivity interaction (KinomeScan (DiscoverX)) EUB0001049a HUNK; conditions: at 1 µM
T1 sequence (whole entry): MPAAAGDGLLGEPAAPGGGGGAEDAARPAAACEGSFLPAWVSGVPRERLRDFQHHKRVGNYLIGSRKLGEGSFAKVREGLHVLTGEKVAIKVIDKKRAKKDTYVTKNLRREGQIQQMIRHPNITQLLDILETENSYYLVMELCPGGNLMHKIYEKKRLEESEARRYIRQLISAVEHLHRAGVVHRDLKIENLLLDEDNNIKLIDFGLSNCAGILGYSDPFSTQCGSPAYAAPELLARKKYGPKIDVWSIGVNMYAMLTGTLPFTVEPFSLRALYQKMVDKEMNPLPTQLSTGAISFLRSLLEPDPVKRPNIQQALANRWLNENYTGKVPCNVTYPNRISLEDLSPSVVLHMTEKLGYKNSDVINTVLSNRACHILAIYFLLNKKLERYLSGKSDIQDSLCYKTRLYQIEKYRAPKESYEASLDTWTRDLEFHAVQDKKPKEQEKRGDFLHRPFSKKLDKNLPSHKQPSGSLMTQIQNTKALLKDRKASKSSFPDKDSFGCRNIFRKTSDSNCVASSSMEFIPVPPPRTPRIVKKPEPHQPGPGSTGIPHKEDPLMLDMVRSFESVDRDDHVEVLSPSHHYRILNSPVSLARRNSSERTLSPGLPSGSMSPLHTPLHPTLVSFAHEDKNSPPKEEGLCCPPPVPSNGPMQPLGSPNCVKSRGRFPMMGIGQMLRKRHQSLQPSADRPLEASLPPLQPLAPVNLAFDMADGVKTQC

[3] = target: T2, Tyrosine-protein kinase JAK3 (Homo sapiens) (UniProt P52333); test: Selectivity interaction (Kinase panel (Carna Biosciences)) EUB0001542aTs JAK3; conditions: at 1 µM
T2 sequence (whole entry): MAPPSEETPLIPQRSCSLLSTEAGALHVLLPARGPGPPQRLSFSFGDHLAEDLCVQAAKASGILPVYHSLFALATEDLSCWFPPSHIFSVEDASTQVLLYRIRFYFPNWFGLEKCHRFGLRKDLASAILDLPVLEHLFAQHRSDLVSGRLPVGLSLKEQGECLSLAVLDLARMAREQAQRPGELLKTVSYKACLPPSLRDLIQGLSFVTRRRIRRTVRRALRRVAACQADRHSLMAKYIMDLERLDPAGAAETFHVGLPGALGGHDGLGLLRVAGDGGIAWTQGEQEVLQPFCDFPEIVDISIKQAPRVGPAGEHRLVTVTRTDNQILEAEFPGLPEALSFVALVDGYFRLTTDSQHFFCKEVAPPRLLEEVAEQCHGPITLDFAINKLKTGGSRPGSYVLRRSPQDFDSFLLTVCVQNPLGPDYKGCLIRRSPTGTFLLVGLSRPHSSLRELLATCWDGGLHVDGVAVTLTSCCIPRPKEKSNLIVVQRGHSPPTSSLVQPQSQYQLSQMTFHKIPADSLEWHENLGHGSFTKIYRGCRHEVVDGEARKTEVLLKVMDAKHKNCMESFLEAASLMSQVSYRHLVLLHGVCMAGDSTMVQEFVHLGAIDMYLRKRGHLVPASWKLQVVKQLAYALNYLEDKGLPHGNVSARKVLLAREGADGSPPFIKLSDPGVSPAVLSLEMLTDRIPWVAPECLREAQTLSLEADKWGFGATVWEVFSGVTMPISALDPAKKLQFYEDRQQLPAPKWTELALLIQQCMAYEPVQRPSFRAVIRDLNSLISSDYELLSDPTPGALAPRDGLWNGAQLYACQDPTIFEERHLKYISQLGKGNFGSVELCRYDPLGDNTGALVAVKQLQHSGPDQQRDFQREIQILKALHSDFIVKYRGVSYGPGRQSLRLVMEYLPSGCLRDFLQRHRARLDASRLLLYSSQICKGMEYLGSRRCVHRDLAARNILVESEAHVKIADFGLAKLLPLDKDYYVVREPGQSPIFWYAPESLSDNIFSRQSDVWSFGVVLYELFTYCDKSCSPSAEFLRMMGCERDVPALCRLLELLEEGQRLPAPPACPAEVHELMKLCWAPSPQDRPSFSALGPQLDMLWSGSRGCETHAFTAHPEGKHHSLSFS

[4] = target: Calcium/calmodulin-dependent protein kinase type II subunit delta (Homo sapiens) (UniProt Q13557); test: Selectivity interaction (KinomeScan (DiscoverX)) EUB0000229b CAMK2D; conditions: at 10 µM
[5] = target: Phosphatidylinositol 4,5-bisphosphate 3-kinase catalytic subunit gamma isoform (Homo sapiens) (UniProt P48736); test: Selectivity interaction (ProQinase) EUB0000171b PIK3CG
[6] = target: Proto-oncogene tyrosine-protein kinase ROS (Homo sapiens) (UniProt P08922); test: Selectivity interaction (KinomeScan (DiscoverX)) EUB0000607a ROS1; conditions: at 10 µM
[7] = target: T3, Calcium/calmodulin-dependent protein kinase type IV (Homo sapiens) (UniProt Q16566); test: Selectivity interaction (Kinase panel (KiNativ target engagement assay in Jurkat cells)) EUB0001635a CAMK4; assay type: cell-based; conditions: Selectivity number of off-targets 0.0, Selectivity number of targets 233.0, Source Knowledge https://www.sciencedirect.com/science/article/pii/S2451945619300674?via%3Dihub, at 1 µM
T3 sequence (whole entry): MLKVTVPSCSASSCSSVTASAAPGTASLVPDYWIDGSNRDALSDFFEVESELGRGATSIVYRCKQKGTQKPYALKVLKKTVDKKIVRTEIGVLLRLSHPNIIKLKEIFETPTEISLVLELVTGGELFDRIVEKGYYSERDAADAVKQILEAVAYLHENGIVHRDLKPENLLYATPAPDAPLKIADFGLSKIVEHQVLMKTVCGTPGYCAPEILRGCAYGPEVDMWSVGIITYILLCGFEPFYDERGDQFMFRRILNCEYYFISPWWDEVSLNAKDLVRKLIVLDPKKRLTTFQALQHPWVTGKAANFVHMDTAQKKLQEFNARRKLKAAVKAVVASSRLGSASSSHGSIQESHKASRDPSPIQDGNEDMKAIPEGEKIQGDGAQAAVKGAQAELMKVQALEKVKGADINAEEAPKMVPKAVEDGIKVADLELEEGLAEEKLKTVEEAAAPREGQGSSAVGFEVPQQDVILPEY

[8] = target: Tyrosine-protein kinase JAK1 (Homo sapiens, UniProt P23458); test: Selectivity interaction (KinomeScan (DiscoverX)) EUB0000666a JAK1; conditions: at 10 µM
Tyrosine-protein kinase JAK1, sequence (P23458 whole entry): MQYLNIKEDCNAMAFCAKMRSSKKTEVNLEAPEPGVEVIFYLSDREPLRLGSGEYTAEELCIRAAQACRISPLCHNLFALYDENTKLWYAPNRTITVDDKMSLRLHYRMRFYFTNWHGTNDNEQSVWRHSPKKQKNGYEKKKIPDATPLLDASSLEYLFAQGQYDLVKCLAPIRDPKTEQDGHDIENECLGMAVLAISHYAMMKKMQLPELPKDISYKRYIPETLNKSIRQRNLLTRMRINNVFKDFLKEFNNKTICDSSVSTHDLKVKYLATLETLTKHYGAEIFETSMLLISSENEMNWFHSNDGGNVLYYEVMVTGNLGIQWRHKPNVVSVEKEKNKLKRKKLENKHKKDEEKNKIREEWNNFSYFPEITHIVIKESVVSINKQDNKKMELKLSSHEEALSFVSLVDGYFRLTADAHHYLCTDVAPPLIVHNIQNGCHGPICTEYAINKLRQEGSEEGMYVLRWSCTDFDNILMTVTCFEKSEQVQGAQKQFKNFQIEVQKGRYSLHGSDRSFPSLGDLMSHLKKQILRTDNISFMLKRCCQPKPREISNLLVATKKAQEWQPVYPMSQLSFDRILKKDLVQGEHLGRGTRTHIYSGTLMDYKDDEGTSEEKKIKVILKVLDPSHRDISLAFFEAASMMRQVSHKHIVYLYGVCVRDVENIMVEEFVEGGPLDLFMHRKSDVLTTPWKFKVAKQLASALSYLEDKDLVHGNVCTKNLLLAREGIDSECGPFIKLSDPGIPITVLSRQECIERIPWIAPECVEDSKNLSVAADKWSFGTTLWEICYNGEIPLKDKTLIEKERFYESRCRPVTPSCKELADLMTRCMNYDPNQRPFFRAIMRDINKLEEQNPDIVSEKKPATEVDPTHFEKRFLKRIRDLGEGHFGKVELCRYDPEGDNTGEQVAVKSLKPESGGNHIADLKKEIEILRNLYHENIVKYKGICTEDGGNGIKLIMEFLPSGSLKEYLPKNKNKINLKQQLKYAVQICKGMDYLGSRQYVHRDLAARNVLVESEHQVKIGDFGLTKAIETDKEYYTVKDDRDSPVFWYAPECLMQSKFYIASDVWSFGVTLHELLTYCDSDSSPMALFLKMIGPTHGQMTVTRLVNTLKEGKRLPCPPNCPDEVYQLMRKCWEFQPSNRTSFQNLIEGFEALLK

Phosphatidylinositol 4,5-bisphosphate 3-kinase catalytic subunit gamma isoform (Homo sapiens), sequence (P48736 whole entry, looked up, canonical isoform): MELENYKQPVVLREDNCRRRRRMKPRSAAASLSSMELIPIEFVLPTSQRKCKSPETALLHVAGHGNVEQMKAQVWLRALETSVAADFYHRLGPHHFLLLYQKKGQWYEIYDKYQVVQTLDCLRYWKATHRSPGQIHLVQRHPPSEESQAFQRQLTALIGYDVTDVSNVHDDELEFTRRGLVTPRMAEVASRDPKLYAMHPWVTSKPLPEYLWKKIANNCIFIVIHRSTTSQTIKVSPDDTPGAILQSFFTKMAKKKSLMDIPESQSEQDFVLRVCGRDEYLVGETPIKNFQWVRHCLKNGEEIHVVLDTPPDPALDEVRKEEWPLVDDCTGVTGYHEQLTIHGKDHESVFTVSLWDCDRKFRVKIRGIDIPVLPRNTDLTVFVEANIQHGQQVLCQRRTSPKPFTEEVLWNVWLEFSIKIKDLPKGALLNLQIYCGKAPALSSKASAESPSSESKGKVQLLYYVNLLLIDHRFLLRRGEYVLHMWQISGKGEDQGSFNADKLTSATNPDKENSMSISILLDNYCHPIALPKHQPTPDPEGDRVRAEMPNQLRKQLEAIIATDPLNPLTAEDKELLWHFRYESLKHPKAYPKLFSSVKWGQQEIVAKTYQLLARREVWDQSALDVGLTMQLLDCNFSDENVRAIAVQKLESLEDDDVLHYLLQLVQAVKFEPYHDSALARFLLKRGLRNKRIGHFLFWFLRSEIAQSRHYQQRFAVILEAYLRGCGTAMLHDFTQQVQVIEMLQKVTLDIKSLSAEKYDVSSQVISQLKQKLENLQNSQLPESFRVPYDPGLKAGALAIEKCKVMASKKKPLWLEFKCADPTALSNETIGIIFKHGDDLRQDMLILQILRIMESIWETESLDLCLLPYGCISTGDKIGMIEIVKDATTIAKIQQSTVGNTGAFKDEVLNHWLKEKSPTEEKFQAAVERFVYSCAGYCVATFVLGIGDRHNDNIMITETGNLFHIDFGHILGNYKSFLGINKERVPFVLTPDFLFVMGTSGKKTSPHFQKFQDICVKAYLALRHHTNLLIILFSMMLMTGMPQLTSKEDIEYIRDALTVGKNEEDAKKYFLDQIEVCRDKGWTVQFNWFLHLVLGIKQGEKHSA
Tyrosine-protein kinase JAK2, sequence (O60674 whole entry): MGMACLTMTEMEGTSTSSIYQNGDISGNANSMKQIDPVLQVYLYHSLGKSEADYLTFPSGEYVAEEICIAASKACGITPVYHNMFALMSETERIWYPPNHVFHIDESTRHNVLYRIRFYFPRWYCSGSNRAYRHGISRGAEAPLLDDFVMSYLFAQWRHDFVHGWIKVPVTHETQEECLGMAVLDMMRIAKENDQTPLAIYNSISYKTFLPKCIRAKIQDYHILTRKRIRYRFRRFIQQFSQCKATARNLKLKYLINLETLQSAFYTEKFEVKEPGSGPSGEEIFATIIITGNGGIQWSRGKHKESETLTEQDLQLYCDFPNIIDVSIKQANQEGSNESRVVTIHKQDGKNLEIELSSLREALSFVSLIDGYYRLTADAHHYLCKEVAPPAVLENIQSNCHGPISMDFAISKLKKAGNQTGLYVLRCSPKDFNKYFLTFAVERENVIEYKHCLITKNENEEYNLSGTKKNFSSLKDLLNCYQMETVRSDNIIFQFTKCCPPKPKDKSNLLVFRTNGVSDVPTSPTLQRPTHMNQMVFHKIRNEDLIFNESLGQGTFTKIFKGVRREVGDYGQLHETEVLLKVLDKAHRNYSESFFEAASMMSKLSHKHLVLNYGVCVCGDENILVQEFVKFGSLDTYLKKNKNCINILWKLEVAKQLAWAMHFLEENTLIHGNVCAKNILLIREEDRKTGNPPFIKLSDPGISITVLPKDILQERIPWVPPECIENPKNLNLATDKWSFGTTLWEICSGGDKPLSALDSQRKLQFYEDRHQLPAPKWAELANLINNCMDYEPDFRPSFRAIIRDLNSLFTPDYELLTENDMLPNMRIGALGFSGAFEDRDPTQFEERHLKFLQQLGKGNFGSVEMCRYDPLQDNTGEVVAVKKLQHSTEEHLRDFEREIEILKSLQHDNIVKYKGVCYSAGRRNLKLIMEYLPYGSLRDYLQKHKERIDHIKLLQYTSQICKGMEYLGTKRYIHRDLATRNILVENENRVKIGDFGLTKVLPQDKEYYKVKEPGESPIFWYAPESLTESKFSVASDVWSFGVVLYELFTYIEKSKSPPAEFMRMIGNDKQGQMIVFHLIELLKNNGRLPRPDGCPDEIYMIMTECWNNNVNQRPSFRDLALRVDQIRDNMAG
Calcium/calmodulin-dependent protein kinase type II subunit delta (Homo sapiens), sequence (Q13557 whole entry, canonical isoform): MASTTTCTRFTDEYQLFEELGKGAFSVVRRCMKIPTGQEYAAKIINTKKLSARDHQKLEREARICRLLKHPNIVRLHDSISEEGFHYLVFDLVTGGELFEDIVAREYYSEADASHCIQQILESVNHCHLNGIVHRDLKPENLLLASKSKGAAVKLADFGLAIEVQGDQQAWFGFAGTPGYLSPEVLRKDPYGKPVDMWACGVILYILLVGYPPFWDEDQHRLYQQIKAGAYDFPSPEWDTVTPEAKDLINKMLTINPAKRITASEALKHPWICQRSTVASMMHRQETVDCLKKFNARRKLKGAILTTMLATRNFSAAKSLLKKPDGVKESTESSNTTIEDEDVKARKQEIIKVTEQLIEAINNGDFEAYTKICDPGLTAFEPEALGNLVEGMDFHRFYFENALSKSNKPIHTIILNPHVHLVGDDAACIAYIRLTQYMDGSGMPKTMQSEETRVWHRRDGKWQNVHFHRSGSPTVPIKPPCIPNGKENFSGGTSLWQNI

Structure (SMILES): Cc1cc([C@@H](C)Nc2ccccc2C(=O)O)c2nc(N3CCOCC3)cc(=O)n2c1 [AZD-6482]
% of control [1]: 62%

Structure (SMILES): COc1cc(Nc2nc(C)cc(-c3cnn4nc(OC)ccc34)n2)cc(C(F)(F)F)c1
% of control [2]: 99%

% of inhibition [3]: 92%
Structure (SMILES): Cn1cc(Nc2nccc(N3CC4CCC(C3)N4C(=O)[C@@H]3CC3(F)F)n2)cn1

Structure (SMILES): COc1cc(N(C)c2ccnc3ccc(C(F)(F)F)cc23)cc(OC)c1OC
% binding [4]: 95%

% of control ([5]; at 1 µM): 176%
% of control ([5]; at 5 µM): 156%
Structure (SMILES): C=CC(=O)Nc1cccc(C(=O)Nc2ccc(Nc3cc(-c4[nH]c(SC)nc4C)ccn3)cc2)c1

Structure (SMILES): CNC(=O)Nc1ccc(-c2nc(N3CC4CCC(C3)O4)c3cnn(C4CCC5(CC4)OCCO5)c3n2)cc1
% of control [6]: 81%

Structure (SMILES): C=CC(=O)Nc1ccc(C(=O)Nc2[nH]nc3c2CN(C(=O)N[C@H](CN(C)C)c2ccccc2)C3(C)C)cc1
% of engagement [7]: 4.5%

Structure (SMILES): O=C(NOC[C@H](O)CO)c1ccc(F)c(F)c1Nc1ccc(I)cc1F
% of control [8]: 78%
